Assay results taken from US10080739B2, “Aryl imidazoles and their use as anti-cancer agents” (Aptose Biosciences Inc., priority 2003, dated 2018).

Legend:
[1] = test system: panel of 60 human cancer cell lines; assay: NCI/DTP in vitro anticancer screen, 60 cell lines; assay type: cell-based; settings: NCI panel of 60 human cancer cell lines, value per compound (FIG. 10A)
Method: The twenty-three compounds of Formula I shown below were evaluated for their antiproliferative effects in a panel of 60 human cancer cell lines as part of the in vitro anticancer screening services provided by the DTP (Developmental Therapeutics Program) of the US National Cancer Institute (NCI) U.S. National Cancer Institute (NCI) of the National Institutes of Health (NIH) in […], Md.
The NCI conducts a standard 48/72 hour 60 cell line assay and an in vitro time course assay as described in Alley et al. (Cancer Res (1988) 48:589). In the standard 60 cell line assay, a minimum of 5 concentrations of the test compound are tested at 10-fold dilutions against 60 cell lines and cell growth is assayed at 48 and 72 hours using a sulphorhodamine B assay. For the time course analysis, tumour cells are treated with the test compound at various time points, then washed and grown in medium free of the test compound until the end of the experiment at 144 hrs. This assay employs 20% FBS to better approximate the minimum c×t (concentrations and times) test compound exposure conditions that are required to achieve activity in vivo. Cell growth is quantified by an MTT assay (similar to the XTT assay described above) and the concentration of the test compound required for growth inhibition is determined. […]

[2] = NCI/DTP data; cited from earlier work
[3] = test system: Saccharmyces cerevisiae strains that have mutations in genes related to cell cycle control and DNA repair damage; settings: panel of six yeast strains, single concentration; NCI/DTP data; cited from earlier work
[4] = test system: HT29 colon adenocarcinoma cells; assay: morphological changes (vacuoles), HT29; assay type: cell-based, human; settings: treatment for 24 hours
Description: These vacuoles are not formed in DMSO- or doxorubicin-treated cells. Moreover, the nuclear membrane is no longer evident in the phase-contrast images of cells treated with compound 45, even though the nucleus is still intact, as shown by DAPI staining.

## Cc1[nH]c2ccccc2c1-c1nc2c3cccnc3c3ncccc3c2[nH]1 [Compound 90]
[1]
  GI50 (growth inhibition by 50%): most effective compound

## Cc1ccccc1-c1nc2c3ccccc3c3ccccc3c2[nH]1 [NCI #338970]
[2]
  activity in the In Vivo Anticancer Drug Screen: None of these three compounds showed any activity
[3]
  activity in Stage0 testing in the Yeast Anticancer Drug Screen: active

## COc1cccc2c1C(=O)c1c(O)c3c(c(O)c1C2=O)C[C@@](O)(C(=O)CO)C[C@@H]3O[C@H]1C[C@H](N)[C@H](O)[C@H](C)O1 [doxorubicin, reference compound]
[4]
  formation of vacuoles: not formed
